Test results reported in patent US6022969A, “Compositions and methods for treating mast-cell mediated conditions” (AXYS Pharmaceuticals, Inc., priority 1995, dated 2000).

Target: tryptase
Assay: In vitro tryptase inhibition assay (hydrolysis of tosyl-Gly-Pro-Lys-p-nitroanilide)
Type: biochemical, human
Conditions: tosyl-Gly-Pro-Lys-p-nitroanilide 0.5 mM, pH 8.2, 1 h pre-incubation, room temperature
Procedure: The compounds to be assayed (approximately 1 mg) were dissolved in 200 μL dimethylsulfoxide (DMSO) and diluted 1:10 into buffer containing 50 millimolar (mM) Tris-HCl (pH 8.2), 100 mM sodium chloride, and 0.05% polyoxyethylenesorbitan monolaurate (Tween-20®, available from Sigma, St. Louis, Mo.). Seven additional threefold dilutions were made from the initial dilution into the same buffer supplemented with 10% DMSO. Aliquots (50 microliters, μL) from each of the eight dilutions in the series were transferred to individual wells in a 96-well U-bottom microtiter plate. 25 μL of a stock solution of tryptase was added to each well and the samples were mixed and incubated for one hour at room temperature (tryptase was purified from human lung and skin tissue preparations, HMC-1 (human mast cell line) and also obtained from commercial sources (ICN Biomedicals, Irvine, Calif.; Athens Research & Technology, Athens, Ga.)). […] The tryptase solution was prepared by placing 60 μg/mL of tryptase into solution with 10 mM MES (2-[N-Morpholino]ethane sulfonic acid) containing 2 mM CaCl2, 20% glycerol and 50 μg/mL heparin. The enzyme reaction was initiated with the addition of the synthetic tripeptide substrate, tosyl-Gly-Pro-Lys-p-nitroanilide (available from Sigma, 25 μL; 0.5 mM final concentration).
However, Ki ' varies with the enzyme concentration used in the enzyme assay. […] The y-intercept of a replot of IC50 (ordinate) versus tryptase concentration (abscissa) produces a value for Ki '.
The inhibition constants (Ki ', micromolar (μM)) were determined for the compounds of the present invention.

Row | SMILES | Ki
1 | N=C(N)c1ccc(CCC(=O)N2CCN(C(=O)O[C@H]3CCC[C@@H](OC(=O)N4CCN(C(=O)CCc5ccc(C(=N)N)cc5)CC4)CCC3)CC2)cc1 [Compound 6, cis-1,5-cyclooctylene bis{4-[3(4-amidinophenyl)propionoyl]-1-piperazinecarboxylate}] | 0.37 nM
2 | N=C(N)Nc1ccc(CC(=O)N2CCN(C(=O)O[C@H]3CCC[C@@H](OC(=O)N4CCN(C(=O)Cc5ccc(NC(=N)N)cc5)CC4)CCC3)CC2)cc1 [Compound 10, cis-1,5-cyclooctylene bis[4-(4-guanidinophenylacetyl)-1-piperazinecarboxylate]] | 0.47 nM
3 | NCCc1ccc(C(=O)N2CCN(C(=O)O[C@H]3CCC[C@@H](OC(=O)N4CCN(C(=O)c5ccc(CCN)cc5)CC4)CCC3)CC2)cc1 [Compound 17, cis-1,5-cyclooctylene bis{4-[4-(2-aminoethyl)benzoyl]-1-piperazinecarboxylate]] | 4.9 nM
4 | NCC12CCC(CNC(=O)N3CCN(C(=O)O[C@H]4CCC[C@@H](OC(=O)N5CCN(C(=O)NCC67CCC(CN)(CC6)CC7)CC5)CCC4)CC3)(CC1)CC2 (relative stereo) [Compound 15, cis-1,5-cyclooctylene[4-(4-aminomethylbicyclo[2.2.2]oct-1-ylmethylcarbamoyl)-1-piperazinecarboxylate]] | 302 nM
5 | N=C(N)N1CCC(CCC(=O)N2CCN(C(=O)O[C@H]3CCC[C@@H](OC(=O)N4CCN(C(=O)CCC5CCN(C(=N)N)CC5)CC4)CCC3)CC2)CC1 [Compound 5, cis-1,5-cyclooctylene bis{4-[3-(1-amidinopiperid-4-yl)propionoyl]-1-piperazinecarboxylate}] | 2 nM
6 | CN(CCOC(=O)N[C@H]1CC[C@H](CN)CC1)C(=O)O[C@H]1CCC[C@@H](OC(=O)N(C)CCOC(=O)N[C@H]2CC[C@H](CN)CC2)CCC1 [Compound 40, cis-1,5-cyclooctylene bis[N-2-(trans-4-aminomethylcyclohexylaminoformyloxy)ethyl-N-methylaminocarboxylate]] | 1390 nM
7 | CC(CN)c1ccc(C(=O)N2CCN(C(=O)O[C@H]3CCC[C@@H](OC(=O)N4CCN(C(=O)c5ccc(C(C)CN)cc5)CC4)CCC3)CC2)cc1 (stereo partly drawn) [Compound 18, cis-1,5-cyclooctylene bis{4-[4-(1-aminoprop-2-yl)benzoyl]-1-piperazinecarboxylate}] | 713 nM
8 | N=C(N)Nc1ccc(CNC(=O)N2CCN(C(=O)OC3COC4C(OC(=O)N5CCN(C(=O)NCc6ccc(NC(=N)N)cc6)CC5)COC34)CC2)cc1 (stereo not drawn) [Compound 29, cis-2,6-(4,8-dioxabicyclo[3.3.0]octylene)bis[4-(4-guanidinobenzylcarbamoyl)-1-piperazinecarboxylate]] | 3.8 nM
9 | N=C(N)Nc1ccc(CNC(=O)N2CCN(C(=O)C3CCCCC3C(=O)N3CCN(C(=O)NCc4ccc(NC(=N)N)cc4)CC3)CC2)cc1 (stereo not drawn) [Compound 46, 1,2-cyclohexylene bis[4-(4-guanidinobenzylcarbamoyl)-1-piperazinecarboxadehyde]] | 772 nM
10 | N=C(N)Nc1ccc(CNC(=O)N2CCN(C(=O)O[C@H]3CCC[C@@H](OC(=O)N4CCN(C(=O)NCCCCCCN)CC4)CCC3)CC2)cc1 [Compound 54, cis-5-[4-(6-aminohexylcarbamoyl)piperazin-1-ylformyloxy]cyclooctyl 4-(4-guanidinobenzylcarbamoyl)-1-piperazinecarboxylate] | 20 nM
11 | N=C(N)Nc1ccc(CNC(=O)N2CCN(C(=O)OCC3C4C=CC(CC4)C3COC(=O)N3CCN(C(=O)NCc4ccc(NC(=N)N)cc4)CC3)CC2)cc1 (stereo not drawn) [Compound 30, trans-2,3-bicyclo[2.2.2]oct-5-enylenedimethylene bis[4-(4-guanidinobenzylcarbamoyl)-1-piperazinecarboxylate]] | 8 nM
12 | N=C(N)c1ccc(C(=O)NCC2CCN(C(=O)O[C@H]3CCC[C@@H](OC(=O)N4CCC(CNC(=O)c5ccc(C(=N)N)cc5)CC4)CCC3)CC2)cc1 [Compound 44, cis-1,5-cyclooctylene bis[4-(4-amidinobenzoylaminomethyl)-1-piperidinecarboxylate]] | 8 nM
13 | N=C(N)Nc1ccc(CNC(=O)N2CCN(C(=O)O[C@H]3CCC[C@@H](OC(=O)N4CCN(C(=O)NCCCCN)CC4)CCC3)CC2)cc1 [Compound 51, cis-5-[4-(4-aminobutylcarbamoyl)piperazin-1-ylformyloxy]cyclooctyl 4-(4-guanidinobenzylcarbamoyl)-1-piperazinecarboxylate] | 3.8 nM
14 | NCCCCCNC(=O)N1CCN(C(=O)O[C@H]2CCC[C@@H](OC(=O)N3CCN(C(=O)NCCCCCN)CC3)CCC2)CC1 [Compound 34, cis-1,5-cyclooctylene bis[4-(5-aminopentylcarbamoyl)-1-piperazinecarboxylate]] | 11 nM

More lines, now with the values ahead:

Row | Ki | SMILES
15 | 493 nM | NC[C@H]1CC[C@H](C(=O)N2CCN(C(=O)O[C@H]3CCC[C@@H](OC(=O)N4CCN(C(=O)[C@H]5CC[C@H](CN)CC5)CC4)CCC3)CC2)CC1 [Compound 9, cis-1,5-cyclooctylene bis[4-(trans-4-aminomethylcyclohexylcarbonyl)-1-piperazinecarboxylate]]
16 | 0.48 nM | N=C(N)Nc1ccc(CNC(=O)N2CCN(C(=O)O[C@H]3CCC[C@@H](OC(=O)N4CCN(C(=O)NC[C@H]5CC[C@H](CN)CC5)CC4)CCC3)CC2)cc1 [Compound 52]
17 | 508 nM | NCCCCNC(=O)N1CCN(C(=O)O[C@H]2CCC[C@@H](OC(=O)N3CCN(C(=O)NCCCCN)CC3)CCC2)CC1 [Compound 37, cis-1,5-cyclooctylene bis[4-(4-aminobutylcarbamoyl)-1-piperazinecarboxylate]]
18 | 1450 nM | NC[C@H]1CC[C@H](CNC(=O)OC2CCN(C(=O)O[C@H]3CCC[C@@H](OC(=O)N4CCC(OC(=O)NC[C@H]5CC[C@H](CN)CC5)CC4)CCC3)CC2)CC1 [Compound 43, cis-1,5-cyclooctylene bis[4-(trans-4-aminomethylcyclohexylmethylaminoformyloxy)-1-piperidinecarboxylate]]
19 | 858 nM | NC[C@H]1CC[C@H](NC(=O)OC2CCN(C(=O)O[C@H]3CCC[C@@H](OC(=O)N4CCC(OC(=O)N[C@H]5CC[C@H](CN)CC5)CC4)CCC3)CC2)CC1 [Compound 39, cis-1,5-cyclooctylene bis[4-(trans-4-aminomethylcyclohexylaminoformyloxy)-1-piperidinecarboxylate]]
20 | 332 nM | NCC1CCN(C(=O)NCC2CCN(C(=O)O[C@H]3CCC[C@@H](OC(=O)N4CCC(CNC(=O)N5CCC(CN)CC5)CC4)CCC3)CC2)CC1 [Compound 26, cis-1,5-cyclooctylene bis{4-[4-(aminomethyl)piperid-1-ylcarbonylaminomethyl)-1-piperidinecarboxylate}]
21 | 260 nM | NC[C@H]1CC[C@H](CNC(=O)N2CCCN(C(=O)O[C@H]3CCC[C@@H](OC(=O)N4CCCN(C(=O)NC[C@H]5CC[C@H](CN)CC5)CC4)CCC3)CC2)CC1 [Compound 12, cis-1,5-cyclooctylene bis[4-(trans-4-aminomethylcyclohexylmethylcarbamoyl)-1-(perhydro-7H-1,4-diazepine)carboxylate]]
22 | 119 nM | NCC1CCN(C(=O)NCC2CCN(C(=O)OC[C@H]3CC[C@H](COC(=O)N4CCC(CNC(=O)N5CCC(CN)CC5)CC4)CC3)CC2)CC1 [Compound 23, trans-1,4-cyclohexylenedimethylene bis{4-[4(aminomethyl)piperid-1-ylcarbonylaminomethyl]-1-piperidinecarboxylate}]
23 | 750 nM | NCCOCCNC(=O)N1CCN(C(=O)O[C@H]2CCC[C@@H](OC(=O)N3CCN(C(=O)NCCOCCN)CC3)CCC2)CC1 [Compound 38, cis-1,5-cyclooctylene bis{4-[2-(2-aminoethoxy)ethylcarbamoyl]-1-piperazinecarboxylate}]
24 | 64 nM | NC[C@H]1CC[C@H](CNC(=O)N2CCN(C(=O)OC[C@H]3CC[C@H](COC(=O)N4CCN(C(=O)NC[C@H]5CC[C@H](CN)CC5)CC4)CC3)CC2)CC1 [Compound 42, trans-1,4-cyclohexylenedimethylene bis[4-(trans-4-aminomethylcyclohexylmethylcarbamoyl)-1-piperazinecarboxylate]]
